Results from patent US7985731B2, “Sugar chain added GLP-1 peptide” (Otsuka Chemical Holdings Co., Ltd., priority 2007, dated 2011).
Peptide text beside a SMILES is read from it. * marks the point of attachment. X1 = CC(=O)N[C@@H]1[C@@H](O)[C@H](O[C@@H]2O[C@H](CO)[C@@H](O[C@@H]3O[C@H](CO[C@H]4O[C@H](CO)[C@@H](O)[C@H](O)[C@@H]4O[C@@H]4O[C@H](CO)[C@@H](O[C@@H]5O[C@H](CO[C@]6(C(=O)O)C[C@H](O)[C@@H](NC(C)=O)[C@H]([C@H](O)[C@H](O)CO)O6)[C@H](O)[C@H](O)[C@H]5O)[C@H](O)[C@H]4NC(C)=O)[C@@H](O)[C@H](O[C@H]4O[C@H](CO)[C@@H](O)[C@H](O)[C@@H]4O[C@@H]4O[C@H](CO)[C@@H](O[C@@H]5O[C@H](CO[C@]6(C(=O)O)C[C@H](O)[C@@H](NC(C)=O)[C@H]([C@H](O)[C@H](O)CO)O6)[C@H](O)[C@H](O)[C@H]5O)[C@H](O)[C@H]4NC(C)=O)[C@@H]3O)[C@H](O)[C@H]2NC(C)=O)[C@@H](CO)O[C@H]1NC(=O)C*

Key:
C57BL/6JJcl mice = test: Test Example 7: Oral Glucose Tolerance Test (OGTT); assay type: in vivo
Description: After 30 minutes, a glucose solution was orally administered at a dose of 1 mg/g. Blood was collected from the orbits before the glucose administration and 30 minutes, 60 minutes and 120 minutes after the glucose administration. Blood-sugar levels were measured using ACCU-CHEK Aviva (Roche Diagnostics).
After the oral administration of the glucose solution to the mice fasted overnight, blood was collected over time, and blood-sugar levels were measured.
The correlation between the oligosaccharide chain structure and the activity was studied in mouse OGTT.

[1] = test system: db/db (BKS.Cg-+Lepr db/+Lepr db/Jcl) mice; test: Test Example 8: effect of lowering blood-sugar levels in diabetes model mice; assay type: in vivo; conditions: 9 nmol/kg intraperitoneal
Description: The oligosaccharide chain added GLP-1 peptide prepared in Example 2, 3, 4, 21 or 23 or the GLP-1 prepared in Comparative Example 1 in a PBS solution (9 nmol/10 ml) was intraperitoneally administered at a dose of 10 ml/kg to BKS.Cg−+Lepr^db/+Lepr^db/Jcl mice (10 week old, male). Blood was collected from the orbits before the compound administration and 30 minutes, 60 minutes, 120 minutes, 180 minutes and 300 minutes after the compound administration. Blood-sugar levels were measured using ACCU-CHEK Aviva (Roche Diagnostics).
The db/db (BKS.Cg−+Lepr^db/+Lepr^db/Jcl) mice serving as diabetes model mice have a mutation in a receptor of leptin which is anorexigenic/energy metabolism-accelerating hormone and develops conditions such as obesity or hyperglycemia.
Blood-sugar levels were measured over time, and their effects of lowering blood-sugar levels were compared with that of the GLP-1 without oligosaccharide chain addition of Comparative Example 1.

[2] = 9 nmol/kg intraperitoneal 30 minutes before glucose 1 mg/g oral

SMILES | effect of suppressing rise in blood-sugar levels in OGTT (C57BL/6JJcl mice; [2]) | efficacy relative to 30Cys GLP-1-disialo and 36Cys GLP-1-disialo at the same dose in OGTT (C57BL/6JJcl mice; 0.9 nmol/kg intraperitoneal) | dose dependence of activity of suppressing rise in blood-sugar levels in OGTT (C57BL/6JJcl mice; doses 0.9 nmol/kg and 0.09 nmol/kg intraperitoneal) | effect of lowering blood-sugar levels in db/db mice ([1]; 10-week-old male mice) | durability of effect of lowering blood-sugar levels in db/db mice ([1]; up to 300 minutes) | effect of suppressing rise in blood-sugar levels in OGTT (C57BL/6JJcl mice; 0.9 nmol/kg intraperitoneal) | activity of suppressing rise in blood-sugar levels in OGTT relative to GLP-1 (times) (C57BL/6JJcl mice; from doses giving equivalent effect, GLP-1 at 9 nmol/kg)
CC[C@H](C)[C@H](NC(=O)[C@H](Cc1ccccc1)NC(=O)[C@H](CCC(=O)O)NC(=O)[C@H](CCCCN)NC(=O)[C@H](C)NC(=O)[C@H](C)NC(=O)[C@H](CCC(N)=O)NC(=O)CNC(=O)[C@H](CCC(=O)O)NC(=O)[C@H](CC(C)C)NC(=O)[C@H](Cc1ccc(O)cc1)NC(=O)[C@H](CSCC(=O)N[C@@H]1O[C@H](CO)[C@@H](O[C@@H]2O[C@H](CO)[C@@H](O[C@@H]3O[C@H](CO[C@H]4O[C@H](CO)[C@@H](O)[C@H](O)[C@@H]4O[C@@H]4O[C@H](CO)[C@@H](O[C@@H]5O[C@H](CO[C@]6(C(=O)O)C[C@H](O)[C@@H](NC(C)=O)[C@H]([C@H](O)[C@H](O)CO)O6)[C@H](O)[C@H](O)[C@H]5O)[C@H](O)[C@H]4NC(C)=O)[C@@H](O)[C@H](O[C@H]4O[C@H](CO)[C@@H](O)[C@H](O)[C@@H]4O[C@@H]4O[C@H](CO)[C@@H](O[C@@H]5O[C@H](CO[C@]6(C(=O)O)C[C@H](O)[C@@H](NC(C)=O)[C@H]([C@H](O)[C@H](O)CO)O6)[C@H](O)[C@H](O)[C@H]5O)[C@H](O)[C@H]4NC(C)=O)[C@@H]3O)[C@H](O)[C@H]2NC(C)=O)[C@H](O)[C@H]1NC(C)=O)NC(=O)[C@H](CO)NC(=O)[C@@H](NC(=O)[C@H](CC(=O)O)NC(=O)[C@H](CO)NC(=O)[C@@H](NC(=O)[C@H](Cc1ccccc1)NC(=O)[C@@H](NC(=O)CNC(=O)[C@H](CCC(=O)O)NC(=O)[C@H](C)NC(=O)[C@@H](N)Cc1c[nH]cn1)[C@@H](C)O)[C@@H](C)O)C(C)C)C(=O)N[C@@H](C)C(=O)N[C@@H](Cc1c[nH]c2ccccc12)C(=O)N[C@@H](CC(C)C)C(=O)N[C@H](C(=O)N[C@@H](CCCCN)C(=O)NCC(=O)N[C@@H](CCCNC(=N)N)C(=O)NCC(=O)O)C(C)C [Example 1, 18Cys GLP-1-disialo] (H-HAEGTFTSDVSC(X1)YLEGQAAKEFIAWLVKGRG-OH) | strong effect of suppressing rise in blood-sugar levels | – | – | – | – | – | –
CC[C@H](C)[C@H](NC(=O)[C@H](Cc1ccccc1)NC(=O)[C@H](CCC(=O)O)NC(=O)[C@H](CSCC(=O)N[C@@H]1O[C@H](CO)[C@@H](O[C@@H]2O[C@H](CO)[C@@H](O[C@@H]3O[C@H](CO[C@H]4O[C@H](CO)[C@@H](O)[C@H](O)[C@@H]4O[C@@H]4O[C@H](CO)[C@@H](O[C@@H]5O[C@H](CO[C@]6(C(=O)O)C[C@H](O)[C@@H](NC(C)=O)[C@H]([C@H](O)[C@H](O)CO)O6)[C@H](O)[C@H](O)[C@H]5O)[C@H](O)[C@H]4NC(C)=O)[C@@H](O)[C@H](O[C@H]4O[C@H](CO)[C@@H](O)[C@H](O)[C@@H]4O[C@@H]4O[C@H](CO)[C@@H](O[C@@H]5O[C@H](CO[C@]6(C(=O)O)C[C@H](O)[C@@H](NC(C)=O)[C@H]([C@H](O)[C@H](O)CO)O6)[C@H](O)[C@H](O)[C@H]5O)[C@H](O)[C@H]4NC(C)=O)[C@@H]3O)[C@H](O)[C@H]2NC(C)=O)[C@H](O)[C@H]1NC(C)=O)NC(=O)[C@H](C)NC(=O)[C@H](C)NC(=O)[C@H](CCC(N)=O)NC(=O)CNC(=O)[C@H](CCC(=O)O)NC(=O)[C@H](CC(C)C)NC(=O)[C@H](Cc1ccc(O)cc1)NC(=O)[C@H](CO)NC(=O)[C@H](CO)NC(=O)[C@@H](NC(=O)[C@H](CC(=O)O)NC(=O)[C@H](CO)NC(=O)[C@@H](NC(=O)[C@H](Cc1ccccc1)NC(=O)[C@@H](NC(=O)CNC(=O)[C@H](CCC(=O)O)NC(=O)[C@H](C)NC(=O)[C@@H](N)Cc1c[nH]cn1)[C@@H](C)O)[C@@H](C)O)C(C)C)C(=O)N[C@@H](C)C(=O)N[C@@H](Cc1c[nH]c2ccccc12)C(=O)N[C@@H](CC(C)C)C(=O)N[C@H](C(=O)N[C@@H](CCCCN)C(=O)NCC(=O)N[C@@H](CCCNC(=N)N)C(=O)NCC(=O)O)C(C)C [Example 3, 26Cys GLP-1-disialo] | strong effect of suppressing rise in blood-sugar levels | about ½ | dose-dependent activity of suppressing rise in blood-sugar levels | strong effect of lowering blood-sugar levels | effects of lowering blood-sugar levels were slightly weakened over time | – | –
CC[C@H](C)[C@H](NC(=O)[C@H](Cc1ccccc1)NC(=O)[C@H](CCC(=O)O)NC(=O)[C@H](CCCCN)NC(=O)[C@H](C)NC(=O)[C@H](C)NC(=O)[C@H](CCC(N)=O)NC(=O)CNC(=O)[C@H](CCC(=O)O)NC(=O)[C@H](CSCC(=O)N[C@@H]1O[C@H](CO)[C@@H](O[C@@H]2O[C@H](CO)[C@@H](O[C@@H]3O[C@H](CO[C@H]4O[C@H](CO)[C@@H](O)[C@H](O)[C@@H]4O[C@@H]4O[C@H](CO)[C@@H](O[C@@H]5O[C@H](CO[C@]6(C(=O)O)C[C@H](O)[C@@H](NC(C)=O)[C@H]([C@H](O)[C@H](O)CO)O6)[C@H](O)[C@H](O)[C@H]5O)[C@H](O)[C@H]4NC(C)=O)[C@@H](O)[C@H](O[C@H]4O[C@H](CO)[C@@H](O)[C@H](O)[C@@H]4O[C@@H]4O[C@H](CO)[C@@H](O[C@@H]5O[C@H](CO[C@]6(C(=O)O)C[C@H](O)[C@@H](NC(C)=O)[C@H]([C@H](O)[C@H](O)CO)O6)[C@H](O)[C@H](O)[C@H]5O)[C@H](O)[C@H]4NC(C)=O)[C@@H]3O)[C@H](O)[C@H]2NC(C)=O)[C@H](O)[C@H]1NC(C)=O)NC(=O)[C@H](Cc1ccc(O)cc1)NC(=O)[C@H](CO)NC(=O)[C@H](CO)NC(=O)[C@@H](NC(=O)[C@H](CC(=O)O)NC(=O)[C@H](CO)NC(=O)[C@@H](NC(=O)[C@H](Cc1ccccc1)NC(=O)[C@@H](NC(=O)CNC(=O)[C@H](CCC(=O)O)NC(=O)[C@H](C)NC(=O)[C@@H](N)Cc1c[nH]cn1)[C@@H](C)O)[C@@H](C)O)C(C)C)C(=O)N[C@@H](C)C(=O)N[C@@H](Cc1c[nH]c2ccccc12)C(=O)N[C@@H](CC(C)C)C(=O)N[C@H](C(=O)N[C@@H](CCCCN)C(=O)NCC(=O)N[C@@H](CCCNC(=N)N)C(=O)NCC(=O)O)C(C)C [Example 16, 20Cys GLP-1-disialo] (H-HAEGTFTSDVSSYC(X1)EGQAAKEFIAWLVKGRG-OH) | strong effect of suppressing rise in blood-sugar levels | – | – | – | – | – | –
CC[C@H](C)[C@H](NC(=O)[C@H](Cc1ccccc1)NC(=O)[C@H](CCC(=O)O)NC(=O)[C@H](CCCCN)NC(=O)[C@H](C)NC(=O)[C@H](C)NC(=O)[C@H](CCC(N)=O)NC(=O)CNC(=O)[C@H](CCC(=O)O)NC(=O)[C@H](CC(C)C)NC(=O)[C@H](Cc1ccc(O)cc1)NC(=O)[C@H](CSCC(=O)N[C@@H]1O[C@H](CO)[C@@H](O[C@@H]2O[C@H](CO)[C@@H](O[C@@H]3O[C@H](CO[C@H]4O[C@H](CO)[C@@H](O)[C@H](O)[C@@H]4O[C@@H]4O[C@H](CO)[C@@H](O[C@@H]5O[C@H](CO[C@]6(C(=O)O)C[C@H](O)[C@@H](NC(C)=O)[C@H]([C@H](O)[C@H](O)CO)O6)[C@H](O)[C@H](O)[C@H]5O)[C@H](O)[C@H]4NC(C)=O)[C@@H](O)[C@H](O[C@H]4O[C@H](CO)[C@@H](O)[C@H](O)[C@@H]4O[C@@H]4O[C@H](CO)[C@@H](O[C@@H]5O[C@H](CO[C@]6(C(=O)O)C[C@H](O)[C@@H](NC(C)=O)[C@H]([C@H](O)[C@H](O)CO)O6)[C@H](O)[C@H](O)[C@H]5O)[C@H](O)[C@H]4NC(C)=O)[C@@H]3O)[C@H](O)[C@H]2NC(C)=O)[C@H](O)[C@H]1NC(C)=O)NC(=O)[C@H](CO)NC(=O)[C@@H](NC(=O)[C@H](CC(=O)O)NC(=O)[C@H](CO)NC(=O)[C@@H](NC(=O)[C@H](Cc1ccccc1)NC(=O)[C@@H](NC(=O)CNC(=O)[C@H](CCC(=O)O)NC(=O)[C@H](C)NC(=O)[C@@H](N)Cc1c[nH]cn1)[C@@H](C)O)[C@@H](C)O)C(C)C)C(=O)N[C@@H](C)C(=O)N[C@@H](Cc1c[nH]c2ccccc12)C(=O)N[C@@H](CC(C)C)C(=O)N[C@H](C(=O)N[C@@H](CCCCN)C(=O)NCC(=O)N[C@@H](CSCC(=O)N[C@@H]1O[C@H](CO)[C@@H](O[C@@H]2O[C@H](CO)[C@@H](O[C@@H]3O[C@H](CO[C@H]4O[C@H](CO)[C@@H](O)[C@H](O)[C@@H]4O[C@@H]4O[C@H](CO)[C@@H](O[C@@H]5O[C@H](CO[C@]6(C(=O)O)C[C@H](O)[C@@H](NC(C)=O)[C@H]([C@H](O)[C@H](O)CO)O6)[C@H](O)[C@H](O)[C@H]5O)[C@H](O)[C@H]4NC(C)=O)[C@@H](O)[C@H](O[C@H]4O[C@H](CO)[C@@H](O)[C@H](O)[C@@H]4O[C@@H]4O[C@H](CO)[C@@H](O[C@@H]5O[C@H](CO[C@]6(C(=O)O)C[C@H](O)[C@@H](NC(C)=O)[C@H]([C@H](O)[C@H](O)CO)O6)[C@H](O)[C@H](O)[C@H]5O)[C@H](O)[C@H]4NC(C)=O)[C@@H]3O)[C@H](O)[C@H]2NC(C)=O)[C@H](O)[C@H]1NC(C)=O)C(=O)NCC(=O)O)C(C)C [Example 49, 18,36Cys GLP-1-disialo] | effect almost equivalent to that of the 36Cys GLP-1-disialo | – | – | – | – | almost equivalent to that of the GLP-1 at a dose of 9 nmol/kg | about 10 times
